Data reported in patent US7429612B2, “Indoline compound and medicinal use thereof” (Kyoto Pharmaceutical Industries, Ltd., priority 2002, dated 2008).
Each block holds one molecule with its values, some of them ahead of it.

How the values were obtained:
[1] = Plasma concentration after oral administration; format: in vivo, SD male rats; conditions: 10 mg/kg oral, suspended in 5% gum arabic, HPLC
Method: A test compound (10 mg/kg) suspended in 5% gum arabic solution was forcibly administered orally to SD male rats weighing 200-250 g. At 0.5, 1, 3, 5 and 8 hours after administration, blood was taken without anesthesia and heparinized plasma was separated by conventional method. The concentration of the test compound in the plasma was determined by high performance liquid chromatography, the results of which are shown in Table 5.

hepatic ACAT = test: Hepatic ACAT inhibitory activity (rabbit liver microsomes, [1-14C]-oleoyl CoA); format: biochemical, Japanese white rabbits; conditions: Concentration: 10^-6 M; inhibition of cholesteryl oleate production vs control
Method: A high cholesterol feed [a feed added with cholesterol (1%), Clea Japan, Inc.] was fed to male Japanese white rabbits weighing 2-2.5 kg at 100 g per day and the rabbits were bred for 4 weeks. The rabbits were killed by bleeding under anesthesia and liver was removed. The liver was homogenated, and the homogenate was centrifuged at 4° C. and 10,000 rpm for 15 min. The obtained supernatant was further centrifuged at 4° C. and 41,000 rpm for 60 minutes to give microsomal fractions. The microsomal suspension as an enzyme sample, dimethyl sulfoxide (DMSO, […]) or a test compound dissolved in DMSO (test compound solution 3 μl), and reaction substrate [1-^14C]-oleoyl CoA were added to 0.15 M phosphate buffer to the total amount of 300 μl. After incubation at 37° C. for 20 minutes, a chloroform-methanol mixture was added to stop the reaction. Water was added thereto and mixed, and the chloroform layer was separated. The solvent was evaporated to dryness, and the residue was redissolved in n-hexane. The mixture was subjected to thin layer chromatography using a silica gel plate. The spots of cholesteryl oleate on the silica gel plate were scraped, and quantitatively assayed on lo a liquid scintillation counter.

[2] = test system: cholesterol secretion from the liver; test: Mouse hepatic lipid secretion inhibitory effect (Triton WR-1339 method); format: in vivo, Slc:ICR mice; conditions: 10 mg/kg/day oral, plasma TC change in 3 hr after Triton WR-1339, read-out: Cholesterol secretion inhibitory rate (%)
Method: About 5 week-old male Slc:ICR mice (Japan SLC) were fed only in the daytime (9:00-18:00) and preliminarily bred for one week. During this period, free access to tap water was allowed during the nighttime, too. The mice were divided into a control group and a test compound group at 6 mice per group, such that the average and standard deviation of the body weight became almost the same. The blood (ca 80 μL) was drawn from the orbital venous plexus using a glass capillary under anesthesia, and at 30 min after blood drawing, a test compound suspended in 5% gum arabic solution in advance was orally administered at a dose of 10 mg/kg. At 30 min after the administration, Triton WR-1339 60 mg/mL solution prepared with physiological saline in advance was administered to the tail vein at a dose of 5 mL/kg. At 3 hr after the Triton WR-1339 administration, the blood was drawn again from the orbital venous plexus. Plasma was separated from the drawn blood, and plasma TC was measured using a commercially available measurement kit (Wako Pure Chemical Industries, Ltd.). Changes in blood-concentration in 3 hr after Triton WR-1339 administration were calculated and taken as the rate of cholesterol secretion from the liver. The rate of secretion was compared between the control group and the test compound group and the secretion inhibitory rate of the test compound was calculated.

[3] = test system: THP-1 cell-derived macrophages; test: THP-1 cell-derived macrophage foam cell formation suppressing effect (cholesterol ester accumulation inhibitory effect); format: cell-based; conditions: Homo sapiens, THP-1, 72 h, Concentration: 10^-6 M, acetyl LDL, 3 days culture, read-out: foam cell formation inhibitory rate (%)
Method: THP-1 (Dainippon Pharmaceutical Co., Ltd.) cells were passage cultured in RPMI-1640 medium supplemented with 10% fetal bovine serum (FBS), and the cells of passages 6-13 after purchase were used. The cells were suspended in FBS-containing RPMI-1640 medium to give a suspension having a concentration of 4×10^5 cells/mL. The cell suspension was inoculated to a 12 well microplate by 1 mL, and treated with phorbol 12-myristate 13-acetate (PMA, 200 nM) as a differentiation inducing agent into macrophage. Then acetyl LDL 400 μg/mL prepared separately from plasma-derived LDL of genetically hyperlipidemia rabbit (KHC rabbit, Japan Laboratory Animals, Inc.) was added. In addition, a test compound dissolved in DMSO and diluted with FBS-containing RPMI-1640 medium or a control solvent was added. After culture in a carbon dioxide incubator for 3 days, the cells were washed with phosphate buffered physiological saline (pH 7.0), and the lipid was extracted with n-hexane/isopropanol (3:2). The cells were dissolved in 1M-NaOH and the protein amount was measured. The free cholesterol and cholesterol ester in a lipid extraction sample was measured by the method of Kunitomo et al. (1983). The cholesterol ester was compared between the control cell and the test compound-treated cells, and the cholesterol ester accumulation inhibitory rate of the test compound was calculated.

LDL = test: In vitro LDL peroxidation inhibitory effect (copper sulfate, thiobarbituric acid method); format: biochemical, KHC rabbits; conditions: Concentration: 10^-5 M; malondialdehyde production, 5 μM copper sulfate, 37° C., 1 hr
Method: The blood was drawn from the auricular artery of KHC rabbits weighing about 3 kg and LDL was separated by a conventional method. A solution (5 μL) of test compound in DMSO or DMSO was added (final concentration 10^−5 M) to LDL suspension (0.5 mg protein/mL, 0.5 mL), aqueous copper sulfate solution (5 μL, final concentration 5 μM) was added, and the mixture was incubated at 37° C. for 1 hr. After the completion of the incubation, EDTA·2Na solution (5 μL, final concentration 1 mM) was added, and lipoperoxide concentration in the-sample was measured by the Yagi's method. To be specific, lipoperoxide in the sample was color developed by the thiobarbituric acid method, measured as malondialdehyde and the activity of the test compound was shown by malondialdehyde production inhibitory rate (%) [to what level the production of malondialdehyde was inhibited as compared to control].

Structure (SMILES): CCCCCN1CCc2c(C)c(NS(C)(=O)=O)c(C)c(NC(=O)C(C)(C)C)c21 [Example 11, N-(5-methanesulfonylamino-4,6-dimethyl-1-pentylindolin-7-yl)-2,2-dimethylpropanamide]
Maximum concentration in blood [1]: 1.98 µg/mL

Structure (SMILES): CCCCN1CCc2c(C)c(NS(C)(=O)=O)c(C)c(NC(=O)C(C)(C)C)c21 [Example 12, N-(1-butyl-5-methanesulfonylamino-4,6-dimethylindolin-7-yl)-2,2-dimethylpropanamide]
Maximum concentration in blood [1]: 3.05 µg/mL

Structure (SMILES): Cc1c2c(c(NC(=O)C(C)(C)C)c(C)c1NS(C)(=O)=O)N(CCC(C)C)CC2 [Example 13, N-[5-methanesulfonylamino-4,6-dimethyl-1-(3-methylbutyl)indolin-7-yl]-2,2-dimethylpropanamide]
Maximum concentration in blood [1]: 1.36 µg/mL

Structure (SMILES): CCCN1CCc2c(C)c(NS(C)(=O)=O)c(C)c(NC(=O)C(C)(C)C)c21 [Example 14, N-(5-methanesulfonylamino-4,6-dimethyl-1-propylindolin-7-yl)-2,2-dimethylpropanamide]
Maximum concentration in blood [1]: 2.30 µg/mL

Structure (SMILES): Cc1c2c(c(NC(=O)C(C)(C)C)c(C)c1NS(C)(=O)=O)N(CC(C)C)CC2 [Example 15, N-[5-methanesulfonylamino-4,6-dimethyl-1-(2-methylpropyl)indolin-7-yl]-2,2-dimethylpropanamide]
Maximum concentration in blood [1]: 1.68 µg/mL

Structure (SMILES): CCCN1CCc2c(C)c(NS(N)(=O)=O)c(C)c(NC(=O)C(C)(C)C)c21.Cl [Example 17, N-(4,6-dimethyl-1-propyl-5-sulfamoylaminoindolin-7-yl)-2,2-dimethylpropanamide hydrochloride]
Hepatic ACAT inhibitory ratio (%) (hepatic ACAT): 86.4%
inhibition in vivo at 10 mg/kg [2]: 44.4%

Structure (SMILES): CCCCCN1CCc2c(C)c(NS(N)(=O)=O)c(C)c(NC(=O)C(C)(C)C)c21.Cl [Example 18, N-(4,6-dimethyl-1-pentyl-5-sulfamoylaminoindolin-7-yl)-2,2-dimethylpropanamide hydrochloride]
Hepatic ACAT inhibitory ratio (%) (hepatic ACAT): 96.7%
inhibition in vivo at 10 mg/kg [2]: 41.4%
inhibition at 1 µM [3]: 93%

Structure (SMILES): CC(C)(Sc1cc(C(C)(C)C)c(O)c(C(C)(C)C)c1)Sc1cc(C(C)(C)C)c(O)c(C(C)(C)C)c1 [Probucol]
LDL peroxidation inhibitory ratio (%) (LDL): 33.8%

Further lines, with some results ahead:

Maximum concentration in blood [1]: 2.90 µg/mL
Structure (SMILES): CCN1CCc2c(C)c(NS(C)(=O)=O)c(C)c(NC(=O)C(C)(C)C)c21 [Example 16, N-(1-ethyl-5-methanesulfonylamino-4,6-dimethylindolin-7-yl)-2,2-dimethylpropanamide]

Maximum concentration in blood [1]: 1.12 µg/mL
Structure (SMILES): CCCCCCN1CCc2c(C)c(NS(C)(=O)=O)c(C)c(NC(=O)C(C)(C)C)c21 [Example 22, N-(1-hexyl-5-methanesulfonylamino-4,6-dimethylindolin-7-yl)-2,2-dimethylpropanamide]

Maximum concentration in blood [1]: 2.03 µg/mL
Structure (SMILES): Cc1c2c(c(NC(=O)C(C)(C)C)c(C)c1NS(C)(=O)=O)N(C1CCCC1)CC2 [Example 41, N-(1-cyclopentyl-5-methanesulfonylamino-4,6-dimethylindolin-7-yl)-2,2-dimethylpropanamide]
Hepatic ACAT inhibitory ratio (%) (hepatic ACAT): 97.3%
inhibition in vivo at 10 mg/kg [2]: 58.5%
inhibition at 1 µM [3]: 76.5%

Maximum concentration in blood [1]: 1.31 µg/mL
Structure (SMILES): CCCN1c2c(c(C)c(NS(N)(=O)=O)c(C)c2NC(=O)C(C)(C)C)CC1C.Cl (stereo not shown) [Example 53, N-(2,4,6-trimethyl-1-propyl-5-sulfamoylaminoindolin-7-yl)-2,2-dimethylpropanamide hydrochloride]
inhibition at 1 µM [3]: 70%
